# Experimental data: BindingDB's records for doi:10.1021/jm200866y (Merck Serono, 2011)
# Assay: Inhibition of CRTH2-mediated chemotaxis of human eosinophils towards PGD2 after 30 mins by fluorescence counter
row,IC50 [nM],SMILES
1,123,O=C(O)COc1ccc(Cl)cc1C#Cc1ccccc1Cl

# Assay: Antagonist activity at CRTH2 in human blood cells assessed as inhibition of PGD2-induced eosinophil cell shape change after 10 mins by flow cytometry
row,SMILES,IC50 [nM]
1,O=C(O)COc1ccc(Cl)cc1C#Cc1cccc(Cl)c1,6900
2,O=C(O)COc1ccc(Cl)cc1C#Cc1ccc(CO)cc1F,680
3,O=C(O)COc1ccc(Cl)cc1C#Cc1cccc(S(=O)(=O)CCO)c1,990
4,CS(=O)(=O)c1ccc(F)c(C#Cc2cc(Cl)ccc2OCC(=O)O)c1,95
5,CCCc1ccc(S(C)(=O)=O)cc1C#Cc1cc(Cl)ccc1OCC(=O)O,1200
6,CC(C)c1ccc(S(C)(=O)=O)cc1C#Cc1cc(Cl)ccc1OCC(=O)O,360
7,Cc1ccc(S(=O)(=O)C(C)C)cc1C#Cc1cc(Cl)ccc1OCC(=O)O,190
8,Cc1ccc(S(=O)(=O)CC(C)C)cc1C#Cc1cc(Cl)ccc1OCC(=O)O,120
9,Cc1ccc(S(=O)(=O)c2ccccc2)cc1C#Cc1cc(Cl)ccc1OCC(=O)O,260
10,Cc1ccc(S(=O)(=O)CCCO)cc1C#Cc1cc(Cl)ccc1OCC(=O)O,310
11,Cc1ccc(S(=O)(=O)NC(C)C)cc1C#Cc1cc(Cl)ccc1OCC(=O)O,250
12,Cc1ccc(S(=O)(=O)N(C)C(C)C)cc1C#Cc1cc(Cl)ccc1OCC(=O)O,140
13,Cc1ccc(S(=O)(=O)N2CCCCC2C)cc1C#Cc1cc(Cl)ccc1OCC(=O)O (centres undefined),310
14,CN(C)S(=O)(=O)c1cncc(C#Cc2cc(Cl)ccc2OCC(=O)O)c1,289
15,O=C(O)COc1ccc(Cl)cc1C#Cc1ccc2c(c1)S(=O)(=O)c1ccccc1-2,4300
16,CCCS(=O)(=O)c1cccc(C#Cc2cc(Cl)ccc2OCC(=O)O)c1,750

# Results, then the molecule that gave them:
row,IC50 [nM],SMILES
1,91,CC(C)S(=O)(=O)c1ccc(F)c(C#Cc2cc(Cl)ccc2OCC(=O)O)c1
2,88,COCCNS(=O)(=O)c1ccc(C)c(C#Cc2cc(Cl)ccc2OCC(=O)O)c1
3,81,CCCS(=O)(=O)c1ccc(C)c(C#Cc2cc(Cl)ccc2OCC(=O)O)c1
4,77,COCCN(C)S(=O)(=O)c1ccc(C)c(C#Cc2cc(Cl)ccc2OCC(=O)O)c1
5,67,CC(C)S(=O)(=O)c1ccc(Cl)c(C#Cc2cc(Cl)ccc2OCC(=O)O)c1
6,64,Cc1ccc(S(C)(=O)=O)cc1C#Cc1cc(Cl)ccc1OCC(=O)O
7,40,CCNS(=O)(=O)c1ccc(C)c(C#Cc2cc(Cl)ccc2OCC(=O)O)c1
8,26,CS(=O)(=O)c1ccc(Cl)c(C#Cc2cc(Cl)ccc2OCC(=O)O)c1
9,23,CCCS(=O)(=O)c1ccc(F)c(C#Cc2cc(Cl)ccc2OCC(=O)O)c1
10,23,CCCS(=O)(=O)c1ccc(Cl)c(C#Cc2cc(Cl)ccc2OCC(=O)O)c1
11,23,Cc1ccc(S(=O)(=O)N(C)C)cc1C#Cc1cc(Cl)ccc1OCC(=O)O
12,3,CCN(Cc1cc(-c2ccc(OC)cn2)ccc1-c1cc(CC(=O)O)ccc1OC)C(=O)C1CC1
